Results published in patent publication US7241803B2, “Compounds for inhibition of HIV infection by blocking HIV entry” (New York Blood Center, priority 2002, dated 2007).

Columns and labels:
[1] = tested on: HIV-1IIIB; assay: time-of-addition assay; assay type: cell-based; settings: 2.5 μM added 8 hrs post-infection
Description: (§1) Assessment of anti-HIV-1 infectivity. […] Reactions were terminated by addition of 1N H2SO4.
MT-2 cells were incubated with HIV-1IIIB at 37° C. for 0, 1, 2, 3, 4, 6, and 8 hrs, respectively, before addition of the test compounds at 10 μg/ml. AZT (2.5 μM) was used as a control. After culture for another 2 hrs, the cells were washed to remove the free virus and compounds. The supernatants were collected on day 4 post-infection for measurement of p24 production.

[2] = tested on: HIV-1IIIB; assay: inhibition of HIV-1IIIB replication (p24 production) in MT-2 cells; assay type: cell-based; settings: concentration up to 80 μg/ml
Text: as §1

[3] = tested on: HIV-1NL4-3 pseudotyped viruses expressing HIV-1SF162 (R5) Env with U87-T4-CCR5 cells; assay: virus-cell fusion, luciferase assay; assay type: cell-based; settings: HIV-1SF162 (R5) Env pseudotyped virus
Description: Inhibition of virus-cell fusion. Inhibition of fusion of HIV-1NL4-3 pseudotyped viruses expressing envelope glycoprotein of the HIV-1HXB2 (X4) and HIV-1SF162 (R5) strains with U87-T4-CXCR4 and U87-T4-CCR5 cells, respectively, was measured as previously described (15). Briefly, 100 μl of U87-T4-CXCR4 and U87-T4-CCR5 cells, respectively, at 1×10^5 cells/ml were added to the wells of a 96-well tissue culture plate and cultured at 37° C. overnight. Fifty μl of a test compound at graded concentrations was mixed with 50 μl of the HIV-1NL4-3-luc viruses pseudotyped with the HIV-1HXB2 and HIV-1SF162 Env, prepared as described previously (15), at a final p24 concentration of 0.5 ng/ml in the presence of Polybrene (10 μg/ml). After incubation at 37° C. for 30 min, the mixtures were added to the cells and incubated at 37° C. overnight. The supernatants were removed and fresh culture medium was added. After incubation at 37° C. for 3 days, the cells were washed twice with PBS and lysed with the lysing reagent included in a luciferase assay kit (Promega, Corp., Madison, Wis.). The cell lysates were transferred to a 96-well flat-bottom luminometer plate (Costar, Corning Inc., Corning, N.Y.) and luciferase substrate (Promega) was added. The luciferase activity was measured immediately on a luminometer (Ultra 384, Tecan). The % inhibition and IC50 values were calculated as described above.

[4] = tested on: H9/HIV-1IIIB cells cocultured with MT-2 cells; assay: syncytium-formation assay for screening HIV-1 fusion inhibitors; assay type: cell-based; settings: single dose 25 μg/ml
Text: Syncytium-formation assay for screening HIV-1 fusion inhibitors. […] HIV-1 induced syncytium formation was observed under an inverted microscope and scored as “−” (no syncytium was observed), “±” (about 50% syncytia were inhibited), and “+” (no syncytium formation was inhibited). The compounds scored with “−” and “±” were selected for further screening by ELISA for inhibitors against the gp41 six-helix bundle formation.

[5] = tested on: MT-2 & H9/HIV-1IIIB (clade B, X4); assay: cell-cell fusion, dye transfer assay; assay type: cell-based; settings: H9/HIV-1IIIB with MT-2 cells
Description: Inhibition of cell-cell fusion. A dye transfer assay was used for detection of HIV-1 mediated cell fusion as previously described (21, 24, 34). H9/HIV-1IIIB cells were labeled with a fluorescent reagent, Calcein-AM (Molecular Probes, Inc., Eugene, Oreg.) and then incubated with MT-2 cells (ratio=1:5) in 96-well plates at 37° C. for 2 hrs in the presence or absence of compounds tested. The fused and unfused Cacein-labeled HIV-1-infected cells were counted under an inverted fluorescence microscope (Zeiss, Germany) with an eyepiece micrometer disc. The percentage of inhibition of cell fusion and the IC50 values were calculated as previously described (21).

[6] = biological target: gp41 six-helix bundle formed by N36 and C34 (Human immunodeficiency virus type 1 group M subtype B, UniProt P04578); settings: for inhibitory activity on gp41 six-helix bundle formation (sandwich ELISA): graded concentrations, up to 80 μg/ml, compound preincubated with N36; for inhibition of six-helix bundle formation between N36 and C34 (screening ELISA): single dose 25 μg/ml
gp41 six-helix bundle formed by N36 and C34, sequence (P04578 546-581): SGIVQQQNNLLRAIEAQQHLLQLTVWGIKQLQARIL
Description: ELISA for screening for compounds that inhibit the gp41 six-helix bundle formation. A sandwich ELISA as previously described (23) was used to screen for compounds that inhibit the gp41 six-helix bundle formation. Briefly, peptide N36 (2 μM) was pre-incubated with a test compound at the indicated concentrations at 37° C. for 30 min, followed by addition of C34 (2 μM). In the control experiments, N36 was pre-incubated with C34 at 37° C. for 30 min, followed by addition of the test compound. After incubation at 37° C. for 30 min, the mixture was added to wells of a 96-well polystyrene plate (Costar, Corning Inc., Corning, N.Y.) which were precoated with IgG (2 μg/ml) purified from rabbit antisera directed against the N36/C34 mixture. […] Absorbance at 450 nm was measured using an ELISA reader (Ultra 384, Tecan, Research Triangle Park, N.C.). The percent inhibition by the compounds was calculated as previously described (18) and the concentration for 50% inhibition (IC50) was calculated using the software designated Calcusyn (7), kindly provided by Dr. T. C. Chou (Sloan-Kettering Cancer Center, New York, N.Y.).

[7] = biological target: T1, gp120-CD4 binding (Human immunodeficiency virus type 1 group M subtype B, UniProt P03375); parameters: species or system HIV-1; settings: 10 μg/ml
T1 construct: purchased Immunodiagnostics, Woburn, Mass; (gp120); Genentech Inc., South San Francisco, Calif; (sCD4)
Description: Inhibition of gp120 binding to CD4. Wells of polystyrene plates was coated with 100 μl of sheep anti-gp120 antibody D7324 (Cliniqa, Fallbrook, Calif.) at 2 μg/ml in carbonate buffer (pH 9.6) at 4° C. overnight and blocked with 1% dry fat-free milk in PBS at 37° C. for 1 h. One hundred microliters of recombinant gp120 molecule (Immunodiagnostics, Woburn, Mass.) at 0.5 μg/ml in PBS was added and incubated at 37° C. for 1 h, followed by three washes with PBS-T. Soluble CD4 (sCD4) at 0.25 μg/ml was added in the presence of a compound (25 μM) and incubated at 37° C. for 1 h. After three washes, rabbit anti-sCD4 IgG (0.25 μg/ml in PBS, 100 μl/well) was added and incubated at 37° C. for 1 h. Binding of rabbit anti-sCD4 IgG was determined by sequential addition of biotinylated goat-anti-rabbit IgG, SA-HRP, and TMB. After the reactions were terminated, absorbance at 450 nm was recorded in an ELISA reader (Tecan).
HIV-1 envelope glycoprotein gp120 was captured by the anti-gp120 antibody coated onto wells of polystyrene plates. […] After extensive washes, CD4 molecule bound to gp120 was quantitated by ELISA using anti-CD4 antibody.

[8] = biological target: T2, CXCR4 (Homo sapiens, UniProt P61073); assay: inhibition of anti-CXCR4 antibody 12G5 binding to CXCR4-expressing cells, cell-based ELISA; settings: 25 μM
T2 construct: expressed in transfected cells; host or cells: U373-MAGI-CXCR4CEM cells
T2 sequence (P61073 whole entry): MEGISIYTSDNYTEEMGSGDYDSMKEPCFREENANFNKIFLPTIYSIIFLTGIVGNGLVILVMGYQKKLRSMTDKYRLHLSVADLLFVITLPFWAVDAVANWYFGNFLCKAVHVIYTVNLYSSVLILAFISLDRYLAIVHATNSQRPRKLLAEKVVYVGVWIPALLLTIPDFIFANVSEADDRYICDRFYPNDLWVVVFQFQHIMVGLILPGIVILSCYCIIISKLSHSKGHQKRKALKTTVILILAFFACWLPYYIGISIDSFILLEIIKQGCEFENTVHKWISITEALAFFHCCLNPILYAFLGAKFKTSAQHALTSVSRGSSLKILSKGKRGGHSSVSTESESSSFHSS
Description: Inhibition of anti-CXCR4 antibody binding to CXCR4-expressing cells. The inhibition of the binding of anti-CXCR4 antibody to CXCR4-expressing cells was determined using a cell-based ELISA as described previously (52). Briefly, U373-MAGI-CXCR4CEM cells (1×10^5/well) which express CXCR4 molecules were cultured in a 96-well plate at 37° C. overnight. The cells were fixed with 5% formaldehyde at room temperature for 15 min and washed with PBS-T. The cells were incubated with anti-CXCR4 mAb 12G5 at 37° C. for 1 h in the presence or absence of compounds tested. Isotype IgG2a was used as a control.

| Molecule | inhibitory activity on HIV-1IIIB replication [2] | inhibitory activity on virus-cell fusion [3] | inhibition of HIV-1 mediated syncytium formation [4] | inhibitory activity on cell-cell fusion [5] | inhibitory activity on gp41 six-helix bundle formation (sandwich ELISA) [6] | inhibition of six-helix bundle formation between N36 and C34 (screening ELISA) [6] | further results |
| --- | --- | --- | --- | --- | --- | --- | --- |
| Cc1cn([C@H]2C[C@H](N=[N+]=[N-])[C@@H](CO)O2)c(=O)[nH]c1=O [AZT, reference compound] | – | – | – | – | – | – | inhibition of HIV-1 replication, time of addition [1]: still effective |
| Cc1ccc(C)n1-c1cccc(O)c1 [NB-177, reference compound] | no inhibitory activity | no inhibitory activity | no inhibitory activity | no inhibitory activity | no inhibitory activity | no inhibitory activity | – |
| Clc1ccc(-n2cccc2)cc1 [NB-178, reference compound] | no inhibitory activity | no inhibitory activity | no inhibitory activity | no inhibitory activity | no inhibitory activity | no inhibitory activity | – |
| CN1C(=O)[C@@H](c2cc(Cl)c(O)c(Cl)c2)NC(=O)[C@@H]2NC(=O)[C@@H](c3cc(Cl)c(O)c(Cl)c3)NC(=O)[C@H](NC(=O)C(=O)c3cc(Cl)c(O)c(Cl)c3)Cc3c[nH]c4c(cccc34)-c3cc2cc(c3O)Oc2ccc(cc2)C[C@H]1C(=O)N[C@@H](C(=O)O)c1ccc(O)cc1 [chloropeptin, reference compound] | – | – | – | – | – | – | inhibition of gp120-CD4 binding [7]: markedly inhibited |
| [Tyr-5,12, Lys-7]polyphemusin II [Example T22, reference compound] | – | – | – | – | – | – | inhibition of 12G5 binding to U373-MAGI-CXCR4CEM cells [8]: significantly inhibited |
